According to patent publication US4288609A, “Quaternary ammonium derivatives of adamantane with antimicrobic activity” (priority 1976, dated 1981):
Like-named read-outs stand apart in the source and are kept apart here.

Experiments:
[1] = tested on: Pseudomonas Aeruginosa; assay: Antibacterial activity in vivo with topical treatment (Table 5); set-up: species or system female CF1 albino mice; conditions: for animals alive on the 15th day / animals dead on the 15th day: 10 animals; for % survivors: topical, 15th day
Method: After their backs have been shaved, female CF1 albino mice weighing 18-22 g are scorched (under ether anaesthetic) for 15 seconds with a pad of brass previously immersed in boiling water (7-8% of the body surface). After 90 minutes there is applied to the scorched area 0.1 ml of a suspension of Pseudomonas Aeruginosa bacteria having 15% transmittance at 650 nm. The bacterial strain in question produces a high incidence of mortality, induced by septicemic diffusion from the point of infection. After 90 minutes, with the aid of a glass rod suitably flattened at one end, the preparation containing a known concentration of the compound under examination is applied locally. The treatment is continued for a total of six days (once per day). On the fifteenth day the percentage of survivors to the tested doses in recorded.
The carrier used for applying the compounds under examination is an aqueous 0.75% solution of carboxymethyl-cellulose. The concentrations of the compounds tested are 2, 1, 0.5 and 0.25% by weight.

[2] = tested on: Proteus Vulc. ATCC 881; assay: M.I.C. in vitro, gram- Proteus Vulc. (Table 1); assay type: cell-based
Method: (§1) The method for evaluating the activity in vitro against bacteria, fungi and protozoa consists in introducing calculated quantities of the substance, the activity of which it is desired to test, into culture media already inoculated with a predetermined number of test germs.
(§2) After 24 or 48 hours of incubation at 30° or 37° C., according to the micro-organism being tested, it is possible to evaluate the growth of the same in the culture broth; in this manner the minimum concentration (M.I.C.) which inhibits the growth of the micro-organisms in vitro is determined.
(§3) In table 1 there are recorded the M.I.C. values in γ/ml of the products subject of the present invention, against certain gram+ and gram- bacterial strains, some of which are pathogenic towards human beings.

[3] = tested on: Staphylococcus Aureus Tour; assay: Speed of sterilising action, Staphylococcus Aureus (Table 3); assay type: cell-based
Method: (§4) The strains, inoculants, culture broths and experimental methods are as already seen for calculating the M.I.C. in vitro. The antimicrobic substances were tested at concentrations of 0.1, 0.25, 0.5 and 1 g/l, the contact times taken into consideration are 0, 1, 2.5, 5, 7.5, 10, 15, 30 and 60 minutes.
(§5) The samples which at the 7th day of incubation still had no growth of micro-organisms which could be observed macroscopically and/or microscopically were considered sterile.
(§6) The results are recorded in Table 3 in terms of sterilization time expressed in minutes.

[4] = tested on: Pseudom.Aer. ATCC 1014; assay: M.I.C. in vitro, gram- Pseudom. Aer. (Table 1); assay type: cell-based, Pseudomonas Aeruginosa; conditions: Pseudomonas aeruginosa
Method: as §1, §2, §3

[5] = tested on: Trichophyton Mentagrophytes Ist. Pasteur; assay: Speed of sterilising action, Trichophyton Mentagrophytes (Table 3); assay type: cell-based
Method: as §4, §5, §6

[6] = Acute oral toxicity in mice (Table 4); conditions: mouse, in vivo, po
Method: The substances were administered orally to groups of 10 female mice CF1 of average weight of about 20 grams, in aqueous solution and in such way that the total volume administered would be in each case 1 ml/100 g of weight.

[7] = tested on: Staph.Aureus Tour; assay: M.I.C. in vitro, gram+ Staph. Aureus (Table 1); assay type: cell-based, Staphylococcus Aureus; conditions: Staphylococcus aureus
Method: as §1, §2, §3

[8] = tested on: Candida Albicans SKF 2270; assay: Speed of sterilising action, Candida Albicans (Table 3); assay type: cell-based
Method: as §4, §5, §6

[9] = tested on: Diplococcus Pneum. ISM; assay: M.I.C. in vitro, gram+ Diplococcus Pneum. (Table 1); assay type: cell-based
Method: as §1, §2, §3

[10] = tested on: Escherichia Coli SKF 12140; assay: Speed of sterilising action, Escherichia Coli (Table 3); assay type: cell-based
Method: as §4, §5, §6

[11] = tested on: Klens. Pneum. ISM; assay: M.I.C. in vitro, gram- Klens. Pneum. (Table 1); assay type: cell-based
Method: as §1, §2, §3

[12] = tested on: Streptococ. Henclyt. 0203; assay: M.I.C. in vitro, gram+ Streptococ. Henclyt. (Table 1); assay type: cell-based
Method: as §1, §2, §3

[13] = tested on: Candida albicans; assay: Activity upon vaginal candidiasis in mice (Table 7); assay type: in vivo, female Swiss mice (Charles River CD1); conditions: for no. of animals surviving: 8 animals
Method: The treatment groups consist each of 8 female Swiss mice (Charles River CD1) of average weight 20 g. The animals are infected with 0.025 ml of a 24 hour culture of Candida albicans, equal to 10^6 cellules.
0.025 ml of a suspension in lanoline of the compound to be tested, at the desired concentration, are applied locally twice a day for a week, the first treatment being started five hours after infection.
The control group is treated with the lanoline alone in the same way. On the eighth day vaginal washings are carried out with 0.025 ml of sterile physiological solution, and the liquid is sown in Petri dishes containing Bacto Biggy Agon Difco as a selective growing medium for the Candida.
After 48 hours of incubation of the dishes at 30° C. a count is taken of the colonies which have grown. Assessment of the activity is quantized using the indices listed here below:
The results are expressed as percentages of the average index of seriousness of the infection A.D.I. (Average Degree of Infection) in the animals treated with respect to the animals in the control group.
The substances under examination were tested at concentrations of 5 and 3% by weight.

[14] = tested on: Esch. Coli. SKF 12140; assay: M.I.C. in vitro, gram- Esch. Coli (Table 1); assay type: cell-based, Escherichia Coli; conditions: Escherichia coli
Method: as §1, §2, §3

[15] = tested on: Trichomonas Vaginalis ISM 66/22; assay: Speed of sterilising action, Trichomonas Vaginalis (Table 3); assay type: cell-based
Method: as §4, §5, §6

[16] = tested on: Trichophyton Mentagrophytes; assay: Topical activity upon dermatophytis from Trichophyton in cavies (Table 6); assay type: in vivo, Albino cavies
Method: Albino cavies of 250-300 g are infected, after depilation and scarification of a circular area of dorsal skin upon which there are supplied 0.1 ml of a suspension of microconidia of Trichophyton Mentagrophytes from the Pasteur Institute collection, obtained from a culture of 15 days upon Saboureaud agar. 24 Hours after infection topical treatment is started and is continued for two weeks (once per day).
The compounds to be tested are dissolved or suspended at the desired concentration, in a water-alcohol mixture (75/25 v/v) containing 0.75% by weight of carboxymethyl-cellulose (CMC). […] Each single application is carried out using 0.25 ml of the suspension or solution obtained as described above.
Fourteen days after infection the lesions are assessed. Assessment is carried out by attributing index numbers depending upon the seriousness of the lesions formed, as follows:
The substances under examination were tested at concentrations of 5 and 2.5% by weight.

[17] = tested on: Nicrosporum Canis ATCC 11621; assay: MIC mildews, Microsporum canis (Table 2); assay type: cell-based; conditions: Microsporum canis, Sabourand broth, read-out: MIC
Method: as §1, §2
(§7) Inoculation with Trichophyton mentagrophytes and Microsporum canis was effected in a ratio of 1% of the volume of medium used.
(§8) For the fungi Sabourand broth was used as a culture medium, whilst for the protozoa Kupferberg Trichomonas broth with 5% of horse serum was used.

[18] = tested on: Trych. Mentagr. 1st.Pastuer; assay: MIC mildews, Trichophyton mentagrophytes (Table 2); assay type: cell-based; conditions: Trichophyton mentagrophytes, Sabourand broth, read-out: MIC
Method: as §1, §2, §7, §8

[19] = tested on: Candida Pseudotrop. ATCC 2512; assay: MIC yeasts, Candida pseudotropicalis (Table 2); assay type: cell-based; conditions: Candida, Sabourand broth, read-out: MIC
Method: as §1, §2
(§9) Inoculation with Candida albicans or Candida pseudotropicalis was made by diluting cultures grown for 24 h at 30° C. (cellular density inoculated 10^3 /ml).
as §8

[20] = tested on: Trich. Foetus ISM 66/23; assay: MIC protozoa, Trichomonas foetus (Table 2); assay type: cell-based; conditions: Tritrichomonas foetus, +10% serum (head); Kupferberg Trichomonas broth with 5% of horse serum; read-out: MIC
Method: as §1, §2
(§10) Inoculation with Trichomonas vaginalis and Trichomonas foetus, obtained from cultures transplanted every other day to make them lively, was effected in a ratio of 3.5% of the volume of medium used.
as §8

[21] = tested on: Candida Albic. SKF 2270; assay: MIC yeasts, Candida albicans (Table 2); assay type: cell-based; conditions: Candida, Sabourand broth, read-out: MIC
Method: as §1, §2, §9, §8

[22] = tested on: Trich. Vaginalis ISM 66/22; assay: MIC protozoa, Trichomonas vaginalis (Table 2); assay type: cell-based; conditions: Trichomonas vaginalis, +10% serum (head); Kupferberg Trichomonas broth with 5% of horse serum; read-out: MIC
Method: as §1, §2, §10, §8

[23] = without serum, read-out: M.I.C.

## CCCCCCCCCCCCCCCC[n+]1ccccc1 [Cetyl pyridine chloride, cetyl pyridine chloride, reference compound]
[1]; 0.25% by weight
  animals alive on the 15th day: 1
  animals dead on the 15th day: 9
  % survivors: 10%
[1]; 0.5% by weight
  animals alive on the 15th day: 3
  animals dead on the 15th day: 7
  % survivors: 30%
[1]; 1% by weight
  animals alive on the 15th day: 2
  animals dead on the 15th day: 8
  % survivors: 20%
[1]; 2% by weight
  animals alive on the 15th day: 4
  animals dead on the 15th day: 6
  % survivors: 40%
[2]; +10% serum
  MIC: > 100 µg/mL
[2]; without serum
  MIC: 20 µg/mL
[3]; 0.1 g/l
  sterilization time: 7.5 min
[3]; 0.25 g/l
  sterilization time: 2.5 min
[3]; 0.5 g/l
  sterilization time: 1 min
[3]; 1 g/l
  sterilization time: 1 min
[4]; ATCC1014, +10% serum
  MIC: > 200 µg/mL
[4]; ATCC1014, without serum
  MIC: 200 µg/mL
[5]; 0.1 g/l
  sterilization time: 60 min
[5]; 0.25 g/l
  sterilization time: 60 min
[5]; 0.5 g/l
  sterilization time: 30 min
[5]; 1 g/l
  sterilization time: 5 min
[6]
  LD50 at 336 h: 275 mg/kg
[7]; +10% serum
  MIC: 10 µg/mL
[7]; without serum
  MIC: 0.1 µg/mL
[8]; 0.1 g/l
  sterilization time: 60 min
[8]; 0.25 g/l
  sterilization time: 10 min
[8]; 0.5 g/l
  sterilization time: 10 min
[8]; 1 g/l
  sterilization time: 10 min
[9]; +10% serum
  MIC: 10 µg/mL
[9]; without serum
  MIC: 1 µg/mL
[10]; 0.1 g/l
  sterilization time: > 60 min
[10]; 0.25 g/l
  sterilization time: > 60 min
[10]; 0.5 g/l
  sterilization time: > 60 min
[10]; 1 g/l
  sterilization time: > 60 min
[11]; +10% serum
  MIC: > 100 µg/mL
[11]; without serum
  MIC: 5 µg/mL
[12]; +10% serum
  MIC: 5 µg/mL
[12]; without serum
  MIC: 0.5 µg/mL
[13]; 3% by weight
  % of healing (100-A.D.I. %): 15.97%
  A.D.I. (compared with controls): 84.03%
  no. of animals surviving: 6
[13]; 5% by weight
  no. of animals surviving: 2
[13]; highest dose, before the end of the experiment
  death of treated animals: 75%
[13]; lower dose
  mortality: 25%
[14]; +10% serum
  MIC: > 100 µg/mL
[14]; without serum
  MIC: 5 µg/mL
[15]; 0.1 g/l
  sterilization time: 5 min
[15]; 0.25 g/l
  sterilization time: 2.5 min
[15]; 0.5 g/l
  sterilization time: 1 min
[15]; 1 g/l
  sterilization time: 1 min
[16]; 2.5% by weight
  A.D.I. (% of control group): 81.27%
  healing % (100-A.D.I. %): 18.73%
[16]; 5% by weight
  A.D.I. (% of control group): 49.81%
  healing % (100-A.D.I. %): 50.19%
[16]; 5% by weight, average index
  evaluation of seriousness of infection (A.D.I.): 1.33

## CCCCCCCCCC[N+](CC)(CC)CCOC(=O)C12CC3CC(CC(C3)C1)C2 [Example 5, n-Decyl-diethyl-(1-adamantane-carboxy)-ethyl-ammonium bromide]
[17]; ATCC11621, +10% serum
  MIC: 20 µg/mL
[17]; ATCC11621, without serum
  MIC: 0.1 µg/mL
[2]; +10% serum, read-out: M.I.C.
  MIC: 100 µg/mL
[2]; [23]
  MIC: 10 µg/mL
[4]; ATCC1014, +10% serum, read-out: M.I.C.
  MIC: 100 µg/mL
[4]; ATCC1014, without serum, read-out: M.I.C.
  MIC: 50 µg/mL
[6]; LD50, oral, mice, 14 days
  LD50 at 336 h: 750 mg/kg
[7]; +10% serum, read-out: M.I.C.
  MIC: 5 µg/mL
[7]; [23]
  MIC: < 0.1 µg/mL
[18]; +10% serum
  MIC: 10 µg/mL
[18]; without serum
  MIC: 0.1 µg/mL
[9]; +10% serum, read-out: M.I.C.
  MIC: 10 µg/mL
[9]; [23]
  MIC: 0.5 µg/mL
[19]; ATCC2512, +10% serum
  MIC: 50 µg/mL
[19]; ATCC2512, without serum
  MIC: 0.1 µg/mL
[20]
  MIC: 5 µg/mL
[11]; +10% serum, read-out: M.I.C.
  MIC: 100 µg/mL
[11]; [23]
  MIC: 10 µg/mL
[12]; +10% serum, read-out: M.I.C.
  MIC: 0.5 µg/mL
[12]; [23]
  MIC: < 0.1 µg/mL
[21]; +10% serum
  MIC: 50 µg/mL
[21]; without serum
  MIC: 0.5 µg/mL
[22]
  MIC: 10 µg/mL
[14]; +10% serum, read-out: M.I.C.
  MIC: 100 µg/mL
[14]; [23]
  MIC: 5 µg/mL
